Assay [1] concerns the target T1, human thioredoxin (Homo sapiens, UniProt P10599).
T1 construct: made in house; host or cells: E. coli
T1 sequence (P10599 1-105): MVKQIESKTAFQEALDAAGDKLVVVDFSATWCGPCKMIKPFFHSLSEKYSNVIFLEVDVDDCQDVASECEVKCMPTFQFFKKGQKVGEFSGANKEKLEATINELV
Description: Inhibition of human thioredoxin by disulfide analogs of PX-12 (kinh/Ki). The class given is biochemical. The conditions noted are these: for Trx kinh/Ki: human thioredoxin, bimolecular parameter estimating potency; for Trx/DTT: ratio of reactivity towards Trx relative to DTT (selectivity).

The nature of assay [2]: Reactivity of disulfide inhibitors towards dithiothreitol.
The target of assay [3] is T2, human TG2 (Homo sapiens, UniProt P21980).
T2 sequence (P21980 1-687): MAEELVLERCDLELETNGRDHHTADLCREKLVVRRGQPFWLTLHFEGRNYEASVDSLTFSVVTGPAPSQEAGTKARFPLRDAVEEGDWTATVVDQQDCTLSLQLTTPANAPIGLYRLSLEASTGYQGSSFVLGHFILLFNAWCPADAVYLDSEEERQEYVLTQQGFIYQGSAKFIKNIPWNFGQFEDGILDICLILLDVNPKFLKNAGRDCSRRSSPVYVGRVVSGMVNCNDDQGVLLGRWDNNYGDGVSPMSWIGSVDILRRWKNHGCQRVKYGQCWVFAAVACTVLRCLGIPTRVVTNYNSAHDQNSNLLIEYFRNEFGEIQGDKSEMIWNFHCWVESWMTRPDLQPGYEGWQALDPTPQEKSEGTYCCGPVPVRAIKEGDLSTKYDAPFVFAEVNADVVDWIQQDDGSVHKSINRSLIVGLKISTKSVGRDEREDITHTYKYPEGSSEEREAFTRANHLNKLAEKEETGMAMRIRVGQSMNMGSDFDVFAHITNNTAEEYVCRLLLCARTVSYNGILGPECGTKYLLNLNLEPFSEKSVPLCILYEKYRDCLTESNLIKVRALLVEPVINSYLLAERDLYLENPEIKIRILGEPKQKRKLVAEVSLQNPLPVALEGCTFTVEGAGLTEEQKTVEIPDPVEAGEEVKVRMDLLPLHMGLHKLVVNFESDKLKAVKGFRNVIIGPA
Description: TG2 inhibition kinetics (kinh/Ki). The class given is biochemical.

Assay [4] deals with T3, human transglutaminase 1 (TG1) (Homo sapiens, UniProt P22735).
T3 sequence (P22735 1-817): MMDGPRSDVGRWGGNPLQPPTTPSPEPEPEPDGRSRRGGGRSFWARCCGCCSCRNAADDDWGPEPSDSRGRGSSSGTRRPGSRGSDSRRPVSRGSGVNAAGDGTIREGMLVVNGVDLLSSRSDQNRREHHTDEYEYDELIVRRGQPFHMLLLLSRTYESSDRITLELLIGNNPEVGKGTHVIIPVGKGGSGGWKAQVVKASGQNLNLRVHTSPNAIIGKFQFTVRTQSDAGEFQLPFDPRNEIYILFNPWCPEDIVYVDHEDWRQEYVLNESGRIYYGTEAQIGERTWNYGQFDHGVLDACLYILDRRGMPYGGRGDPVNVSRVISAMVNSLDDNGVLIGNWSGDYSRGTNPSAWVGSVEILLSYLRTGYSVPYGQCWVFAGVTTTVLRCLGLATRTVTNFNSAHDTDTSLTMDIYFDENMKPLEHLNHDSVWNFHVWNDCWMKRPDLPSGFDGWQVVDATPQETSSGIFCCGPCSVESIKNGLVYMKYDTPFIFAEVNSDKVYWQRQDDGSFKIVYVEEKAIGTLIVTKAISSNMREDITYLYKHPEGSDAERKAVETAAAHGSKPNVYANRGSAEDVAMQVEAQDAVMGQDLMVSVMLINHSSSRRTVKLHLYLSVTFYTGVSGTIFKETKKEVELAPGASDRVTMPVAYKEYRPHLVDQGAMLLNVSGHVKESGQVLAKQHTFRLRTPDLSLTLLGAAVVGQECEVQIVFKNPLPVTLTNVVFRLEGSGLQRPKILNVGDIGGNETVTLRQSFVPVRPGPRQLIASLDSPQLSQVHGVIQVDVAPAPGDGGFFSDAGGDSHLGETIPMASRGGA
Nature of the assay: TG1 inhibition kinetics (kinh/Ki). The class given is biochemical.

With `CCC(C)SSc1nc2ccccc2[nH]1` (centres unmarked) [compound 3], in assay [1], the “Trx kinh/Ki” value was 3170 M⁻¹ s⁻¹ and the Trx/DTT was found to be 39. In assay [2], the DTT k amounted to 80 M⁻¹ s⁻¹.

For `CCSSc1nc2ccccc2[nH]1` [compound 4], in assay [2], the DTT k was determined as 900 M⁻¹ s⁻¹.

As for `c1ccc2[nH]c(SSC3CCCC3)nc2c1` [compound 5], in assay [1], the “Trx kinh/Ki” value was 4000 M⁻¹ s⁻¹ and the Trx/DTT worked out at 74. Moreover, the DTT k in assay [2] was 53.3 M⁻¹ s⁻¹.

In the case of `CC(C)(C)SSc1nc2ccccc2[nH]1` [compound 6], the DTT k in assay [2] was approximately 0.467 M⁻¹ s⁻¹.

In the case of `c1ccc2[nH]c(SSC3CCCCC3)nc2c1` [compound 7], in assay [1], the “Trx kinh/Ki” value is 6330 M⁻¹ s⁻¹ and the Trx/DTT is reported as 83. Also, the DTT k in assay [2] was determined as 76.7 M⁻¹ s⁻¹.

As for `CC(C)SSc1nc2ccccc2[nH]1` [compound 8], in assay [1], the “Trx kinh/Ki” value is 5500 M⁻¹ s⁻¹ and the Trx/DTT worked out at 72. In assay [2], this molecule yielded a DTT k of 76.7 M⁻¹ s⁻¹.

Take `CCC(C)SSc1nc2cc([N+](=O)[O-])ccc2[nH]1` (centres unmarked) [compound 9]: in assay [1], the “Trx kinh/Ki” value was 14500 M⁻¹ s⁻¹ and the Trx/DTT is recorded as 362. In addition, in assay [2], the DTT k was 40 M⁻¹ s⁻¹.

With `CCC(C)SSc1nc2ccncc2[nH]1` (centres unmarked) [compound 10], in assay [1], the “Trx kinh/Ki” value was 3170 M⁻¹ s⁻¹ and the Trx/DTT was 85. This molecule also displayed a DTT k in assay [2] of 36.7 M⁻¹ s⁻¹.

Consider `CCC(C)SSc1nc2ccccc2o1` (centres unmarked) [compound 12], for which, in assay [1], the “Trx kinh/Ki” value is 40000 M⁻¹ s⁻¹ and the Trx/DTT was 392. This molecule also registered a DTT k in assay [2] of 102 M⁻¹ s⁻¹.

As to `CCC(C)SSc1ccccn1` (centres unmarked) [compound 13], in assay [1], the “Trx kinh/Ki” value is “inactive”. The DTT k in assay [2] is 0.617 M⁻¹ s⁻¹.

As to `CCC(C)SSc1nccs1` (centres unmarked) [compound 14], in assay [1], the “Trx kinh/Ki” value was 833 M⁻¹ s⁻¹ and the Trx/DTT was 68. The same molecule came in with a DTT k in assay [2] of 12.3 M⁻¹ s⁻¹.

As for `CCC(C)SSc1nc2cc(Cl)ccc2s1` (centres unmarked) [compound 15], in assay [1], the “Trx kinh/Ki” value was 250 M⁻¹ s⁻¹ and the Trx/DTT is 88. For the same molecule, the DTT k in assay [2] stood at 2.83 M⁻¹ s⁻¹.

`CCC(C)SSc1nc2cc([N+](=O)[O-])ccc2s1` (centres unmarked) [compound 16]: in assay [1], the “Trx kinh/Ki” value was 5830 M⁻¹ s⁻¹ and the Trx/DTT was 175. This molecule also yielded a DTT k in assay [2] of 33.3 M⁻¹ s⁻¹.

For `CCC(C)SSc1nc2cccc(C)c2s1` (centres unmarked) [compound 17], in assay [1], the “Trx kinh/Ki” value is 817 M⁻¹ s⁻¹ and the Trx/DTT was 82. Further, the DTT k in assay [2] was determined as 10 M⁻¹ s⁻¹.

As for `O=C(NC[C@@H]1CC(Br)=NO1)[C@@H]1C[C@@H](F)CN1C(=O)OCc1cnc2ccccc2c1` [compound 18], the “kinh/Ki TG2” value in assay [3] amounted to 120.8 M⁻¹ s⁻¹. The “kinh/Ki TG1” value in assay [4] was 111.6 M⁻¹ s⁻¹.

With `O=C(NC[C@@H]1CC(Br)=NO1)[C@@H]1C[C@H](F)CN1C(=O)OCc1cnc2ccccc2c1` [compound 19], the “kinh/Ki TG2” value in assay [3] amounted to 223.93 M⁻¹ s⁻¹. In addition, the “kinh/Ki TG1” value in assay [4] amounted to 100.7 M⁻¹ s⁻¹.

Regarding `O=C(NC[C@@H]1CC(Br)=NO1)[C@@H]1C[C@@H](O)CN1C(=O)OCc1cnc2ccccc2c1` [compound 20], the “kinh/Ki TG2” value in assay [3] was determined as 208.52 M⁻¹ s⁻¹. Besides, in assay [4], the “kinh/Ki TG1” value was determined as 73.12 M⁻¹ s⁻¹.

For the molecule `O=C(NC[C@@H]1CC(Br)=NO1)[C@@H]1C[C@@H](OCc2ccccc2)CN1C(=O)OCc1cnc2ccccc2c1` [compound 22], in assay [3], the “kinh/Ki TG2” value amounted to 128.5 M⁻¹ s⁻¹.

For the molecule `C#CCO[C@@H]1C[C@@H](C(=O)NC[C@@H]2CC(Br)=NO2)N(C(=O)OCc2cnc3ccccc3c2)C1` [compound 23], in assay [3], the “kinh/Ki TG2” value amounted to 142 M⁻¹ s⁻¹. Moreover, the “kinh/Ki TG1” value in assay [4] is 72.33 M⁻¹ s⁻¹.

Regarding `O=C(NC[C@@H]1CC(Br)=NO1)[C@@H]1Cc2ccccc2CN1C(=O)OCc1cnc2ccccc2c1` [compound 24], the “kinh/Ki TG2” value in assay [3] stood at 130 M⁻¹ s⁻¹.

`O=C(NC[C@@H]1CC(Br)=NO1)[C@@H]1Cc2c([nH]c3ccccc23)CN1C(=O)OCc1cnc2ccccc2c1` [compound 25]: in assay [3], the “kinh/Ki TG2” value was 346.67 M⁻¹ s⁻¹.

Regarding `O=C(NC[C@@H]1CC(Br)=NO1)[C@@H]1CCCCN1C(=O)OCc1cnc2ccccc2c1` [compound 26], the “kinh/Ki TG2” value in assay [3] was found to be 138.3 M⁻¹ s⁻¹. Moreover, the “kinh/Ki TG1” value in assay [4] worked out at 384.87 M⁻¹ s⁻¹.

These data come from patent publication US20140322278A1, “Modulation of Tissue Transglutaminase Activation in Disease” (The Board of Trustees of the Leland Stanford Junior …, priority 2011, published 2014).
